Laboratory results: ChEMBL document CHEMBL1201862, “PubChem BioAssay data set” (2004)
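Test compounds were applied to cells in 96-well plates for 48 hours at 5 doses. Here, GI50 denotes the concentration required for 50% inhibition of growth.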 Calls of active or inactive are those of the source. Cut-off read from the data, not from the text of the source: active = GI50 up to about 1.1 µM and inactive = higher.

Columns and labels:
Experiment in all cases: NCI-60 cell line screen, 48 h
[1] = tested on: COLO 205
[2] = tested on: CCRF-CEM
[3] = tested on: M19-MEL
[4] = tested on: 786-0
[5] = tested on: IGROV-1
[6] = tested on: SF-295
[7] = tested on: NCI-H460
[8] = tested on: NCI-H226
[9] = tested on: HCT-116
[10] = tested on: U-251
[11] = tested on: K562
[12] = tested on: SK-MEL-5
[13] = tested on: A498
[14] = tested on: CAKI-1
[15] = tested on: M14
[16] = tested on: NCI-H23
[17] = tested on: KM12
[18] = tested on: SK-OV-3
[19] = tested on: LXFL 529
[20] = tested on: MCF7

| SMILES | GI50 [1] | GI50 [2] | GI50 [3] | GI50 [4] | GI50 [5] | GI50 [6] | GI50 [7] | GI50 [8] | GI50 [9] | GI50 [10] | GI50 [11] | GI50 [12] | GI50 [13] | GI50 [14] | GI50 [15] | GI50 [16] | GI50 [17] | GI50 [18] | GI50 [19] | GI50 [20] |
| --- | --- | --- | --- | --- | --- | --- | --- | --- | --- | --- | --- | --- | --- | --- | --- | --- | --- | --- | --- | --- |
| COC1CC(O)C(OC(=O)c2ccccc2)C(C)O1 (stereo not given) | > 100 µM (inactive) | > 100 µM (inactive) | > 100 µM (inactive) | > 100 µM (inactive) | > 100 µM (inactive) | > 100 µM (inactive) | > 100 µM (inactive) | > 100 µM (inactive) | > 100 µM (inactive) | > 100 µM (inactive) | > 100 µM (inactive) | > 100 µM (inactive) | > 100 µM (inactive) | > 100 µM (inactive) | > 100 µM (inactive) | > 100 µM (inactive) | > 100 µM (inactive) |  |  |  |
| O=c1oc2c3ccc4ccccc4c3n(CCCN3CCCCC3)c2c2ccccc12 | 10.9 µM (inactive) | 17.3 µM (inactive) | 63.2 µM (inactive) | 18.7 µM (inactive) | > 100 µM (inactive) | 46.9 µM (inactive) | 14.7 µM (inactive) |  | 16.1 µM (inactive) |  | 10.2 µM (inactive) |  |  | > 100 µM (inactive) | 11.5 µM (inactive) |  | 26.5 µM (inactive) | > 100 µM (inactive) | 62.7 µM (inactive) |  |
| N[C@H](C(=O)O)[C@H]1ON=C(Cl)[C@@H]1O | 0.59 µM (active) | 0.966 µM (active) | 1.87 µM (inactive) | 6.61 µM (inactive) | 2.84 µM (inactive) | 5.97 µM (inactive) | 2.76 µM (inactive) | 45.1 µM (inactive) | 2.36 µM (inactive) | 3.3 µM (inactive) | 1.63 µM (inactive) | 0.929 µM (active) |  | 1.77 µM (inactive) | 6.03 µM (inactive) | 3.52 µM (inactive) | 0.612 µM (active) | 14.3 µM (inactive) |  | 2.6 µM (inactive) |
| CC(C)(C)C1=Nc2c(Br)cc(C(C)(C)C)cc2C(C(F)(F)F)(C(F)(F)F)O1 | > 100 µM (inactive) | 32.7 µM (inactive) | 72.6 µM (inactive) | 35.3 µM (inactive) | 65.5 µM (inactive) | 54.8 µM (inactive) | > 100 µM (inactive) |  | 41.2 µM (inactive) | 22.9 µM (inactive) | 39.4 µM (inactive) | 83.6 µM (inactive) |  |  | > 100 µM (inactive) | > 100 µM (inactive) | > 100 µM (inactive) | > 100 µM (inactive) | 46.7 µM (inactive) |  |
| COc1ccc(NC(=O)CC/C(CC(=O)C(C)(C)C)=N\NC(=O)C(N)=O)cc1 | > 100 µM (inactive) | > 100 µM (inactive) | > 100 µM (inactive) | > 100 µM (inactive) | > 100 µM (inactive) | > 100 µM (inactive) | > 100 µM (inactive) | > 100 µM (inactive) | > 100 µM (inactive) | > 100 µM (inactive) | 84.9 µM (inactive) |  |  | > 100 µM (inactive) | > 100 µM (inactive) | > 100 µM (inactive) | > 100 µM (inactive) | > 100 µM (inactive) | 79.4 µM (inactive) |  |
| COc1ncn(C2C=C(CO)C(O)C2O)c(=O)n1 (stereo not given) | > 100 µM (inactive) |  |  | > 100 µM (inactive) | > 100 µM (inactive) |  | > 100 µM (inactive) | > 100 µM (inactive) | > 100 µM (inactive) | > 100 µM (inactive) | > 100 µM (inactive) | > 100 µM (inactive) | > 100 µM (inactive) | < 0.01 µM (active) | > 100 µM (inactive) |  | > 100 µM (inactive) | > 100 µM (inactive) | > 100 µM (inactive) |  |
| COC(=O)/C=C\C(C#N)(C#N)/N=C/c1ccc(OC)cc1 | 1.65 µM (inactive) | 0.162 µM (active) |  | 1.99 µM (inactive) | 15 µM (inactive) | 25.1 µM (inactive) | 19.5 µM (inactive) | 10.8 µM (inactive) | 1.84 µM (inactive) | 17.9 µM (inactive) | 3.41 µM (inactive) | 17.8 µM (inactive) | 18.5 µM (inactive) | 2.08 µM (inactive) | 3.08 µM (inactive) | 8.95 µM (inactive) | 16.7 µM (inactive) | 17.3 µM (inactive) |  | 2.73 µM (inactive) |
| COC(=O)c1c(O)ccc2c1c1c(n2CCc2ccc(OC)c(OC)c2)C(=O)c2ccccc2C1=O | 3.57 µM (inactive) | 9.79 µM (inactive) |  | 13.8 µM (inactive) | 14.6 µM (inactive) | 19.6 µM (inactive) | 5.01 µM (inactive) | 19.6 µM (inactive) | 12.7 µM (inactive) | 18.4 µM (inactive) | 20.5 µM (inactive) | 11.4 µM (inactive) | 15.9 µM (inactive) | 17.5 µM (inactive) | 14.2 µM (inactive) | 15.6 µM (inactive) | 13 µM (inactive) | 19.4 µM (inactive) |  | 17.9 µM (inactive) |
| O=C(N/N=C/c1cccc(F)c1)c1ccncc1 | > 100 µM (inactive) | > 100 µM (inactive) |  | > 100 µM (inactive) |  | > 100 µM (inactive) | > 100 µM (inactive) | 0.056 µM (active) | > 100 µM (inactive) | > 100 µM (inactive) |  | > 100 µM (inactive) | > 100 µM (inactive) | > 10 µM (inactive) | > 100 µM (inactive) | > 100 µM (inactive) | > 100 µM (inactive) | > 100 µM (inactive) | > 100 µM (inactive) |  |
| COc1ccc(NC(=O)CSc2nc(C)nc3c2sc(=S)n3-c2ccccc2)cc1 | 7.28 µM (inactive) | > 10 µM (inactive) |  | 3.39 µM (inactive) | > 10 µM (inactive) | 7.26 µM (inactive) | 3.73 µM (inactive) | 6.85 µM (inactive) | 8.28 µM (inactive) | > 10 µM (inactive) | > 10 µM (inactive) | > 10 µM (inactive) | 5 µM (inactive) | 7.46 µM (inactive) | 8.07 µM (inactive) | > 10 µM (inactive) | > 10 µM (inactive) | > 10 µM (inactive) |  | 8.11 µM (inactive) |
| COc1cc(CCCOC(=O)/C=C/c2ccc(O)c(O)c2)cc(O)c1O | 94.6 µM (inactive) | 30.8 µM (inactive) |  | 49 µM (inactive) | 80.2 µM (inactive) | 35.1 µM (inactive) | 49.8 µM (inactive) | > 100 µM (inactive) | 17.7 µM (inactive) | 36.8 µM (inactive) | 33.2 µM (inactive) | 31.2 µM (inactive) | > 100 µM (inactive) | 58.3 µM (inactive) | > 100 µM (inactive) | 56.4 µM (inactive) | 44.2 µM (inactive) | > 100 µM (inactive) |  | 24.8 µM (inactive) |
| O=c1cc(-c2ccccc2)oc2cc(Oc3nnnn3-c3ccccc3)ccc12 | 35.1 µM (inactive) | 69.2 µM (inactive) |  | 38.7 µM (inactive) | 98.4 µM (inactive) | 46.2 µM (inactive) | 36.8 µM (inactive) | 9.42 µM (inactive) | 34.6 µM (inactive) | 19.1 µM (inactive) | 32.6 µM (inactive) | 15.1 µM (inactive) | 28.3 µM (inactive) | 6.14 µM (inactive) | 36.5 µM (inactive) | 51.6 µM (inactive) | 40.4 µM (inactive) | 36 µM (inactive) |  | 16.3 µM (inactive) |
| COC(=O)C1=COC(C)C2C[n+]3ccc4c([nH]c5ccccc54)c3CC12 (stereo not given) | > 100 µM (inactive) | > 100 µM (inactive) |  | > 100 µM (inactive) | 49.1 µM (inactive) | > 100 µM (inactive) | 36.2 µM (inactive) | 44.9 µM (inactive) | > 100 µM (inactive) | > 100 µM (inactive) | > 100 µM (inactive) | > 100 µM (inactive) | > 100 µM (inactive) | > 100 µM (inactive) | > 100 µM (inactive) | > 100 µM (inactive) | > 100 µM (inactive) | > 100 µM (inactive) |  | 42.7 µM (inactive) |
| CC1(C)CO[P@@](=S)(c2ccccn2)O[C@@H]1c1ccccc1 | > 100 µM (inactive) | 64.4 µM (inactive) |  | > 100 µM (inactive) | > 100 µM (inactive) | > 100 µM (inactive) | > 100 µM (inactive) | 76.2 µM (inactive) | 93.3 µM (inactive) | > 100 µM (inactive) | 57 µM (inactive) | 95.1 µM (inactive) | > 100 µM (inactive) | > 100 µM (inactive) | > 100 µM (inactive) | 89.3 µM (inactive) | > 100 µM (inactive) | > 100 µM (inactive) |  | > 100 µM (inactive) |
| CCOC(=O)/C(C(N)=O)=C(/O)c1cnccn1 | > 100 µM (inactive) | > 100 µM (inactive) |  | > 100 µM (inactive) | > 100 µM (inactive) | > 100 µM (inactive) | > 100 µM (inactive) | > 100 µM (inactive) | > 100 µM (inactive) | > 100 µM (inactive) | > 100 µM (inactive) | > 100 µM (inactive) | > 100 µM (inactive) | > 100 µM (inactive) | > 100 µM (inactive) | > 100 µM (inactive) | > 100 µM (inactive) | > 100 µM (inactive) |  | > 100 µM (inactive) |
| O=C1NC2c3c(I)sc(I)c3C(=O)C2O1 (stereo not given) | 2.67 µM (inactive) | 1.56 µM (inactive) |  | 7.13 µM (inactive) | 2.93 µM (inactive) | 15.8 µM (inactive) | 13.9 µM (inactive) | 5.55 µM (inactive) | 2.58 µM (inactive) | 6.78 µM (inactive) | 4.65 µM (inactive) | 2.46 µM (inactive) | 14.3 µM (inactive) | 3.52 µM (inactive) | 2.07 µM (inactive) | 5.27 µM (inactive) | 11.6 µM (inactive) | 17.3 µM (inactive) |  | 4.58 µM (inactive) |
